Experimental data published in PubChem BioAssay (NCI).
“And” between values parts separate entries of the source, which are not always exact repeats. Identical values can stand only once.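 96-well plates; 48 h exposure; 5 concentrations. Endpoints by linear interpolation between flanking doses. Not reached: highest tested concentration assigned. GI50 is the concentration that inhibits growth by half. TGI is the concentration that stops growth completely.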

Tests used:
Experiment in all cases: growth of human tumour cells (NCI), 48 h
[1] = test system: NCI-H23 lung
[2] = test system: MALME-3M melanoma
[3] = test system: LOX IMVI melanoma
[4] = test system: MDA-MB-231 breast
[5] = test system: SK-MEL-28 melanoma
[6] = test system: NCI-H460 lung
[7] = test system: T-47D breast
[8] = test system: HOP-62 NSCLC
[9] = test system: DU-145 prostate
[10] = test system: UO-31 renal

O=c1ccc(N=Nc2ccccc2)ccc1O showed a TGI [1] of 31.5 µM, a TGI [2] of 27.9 µM and a TGI [3] of 17.4 µM. It also gave a TGI [4] of 36.9 µM, a TGI [5] of 32.9 µM and a TGI [6] of 97.8 µM. The TGI [7] was 42.4 µM, the TGI [8] was 24.4 µM and the TGI [9] was 39.3 µM. For the same molecule, the TGI [10] was 70.9 µM.
With O=C(O)CNc1ccc2c(c1)Cc1cc(Br)ccc1-2 the TGI [1] was 49.3 µM, the TGI [2] was > 67.9 µM and the TGI [3] was > 100 µM. For the same molecule, the TGI [4] was > 68.9 µM, the TGI [5] was > 100 µM and the TGI [6] was > 60.3 µM. For the same molecule, the TGI [7] was > 100 µM, the TGI [8] was > 67.8 µM and the TGI [9] was 82.4 µM. For the same molecule, the TGI [10] was > 100 µM.
Work on COc1ccc2nc3ccccc3c(NCCNCCO)c2c1 yielded a GI50 [1] of 0.762 µM, a TGI [1] of 3.53 µM and a GI50 [2] of 0.382 µM. The TGI [2] was 1.88 µM, the GI50 [3] was 0.404 µM and the TGI [3] was 3.75 µM. It also gave a GI50 [4] of 0.932 µM, a TGI [4] of 3.72 µM and a GI50 [5] of 1.19 µM. The TGI [5] was 3.08 µM, the GI50 [6] was 0.341 µM and the TGI [6] was 1.92 µM. The GI50 [7] was 0.673 µM, the TGI [7] was 6.71 µM and the GI50 [8] was 0.604 µM. The TGI [8] was 3.99 µM, the GI50 [9] was 0.588 µM and the TGI [9] was 5.8 µM. It also gave a GI50 [10] of 0.328 µM and a TGI [10] of 1.68 µM.
With O=C(/C=C/c1ccc(O)c(O)c1)N1CCN(c2ccc(Cl)cc2)CC1 the GI50 [1] was 5.21 µM, the TGI [1] was 32 µM and the GI50 [2] was 11.1 µM. It also gave a TGI [2] of 57.5 µM, a GI50 [3] of 7.35 µM and a TGI [3] of 21.6 µM. It also gave a GI50 [4] of 5.28 µM, a TGI [4] of 35.6 µM and a GI50 [5] of 11.5 µM. The TGI [5] was 58.5 µM, the GI50 [6] was 4.79 µM and the TGI [6] was 21.5 µM. The GI50 [7] was 5.57 µM, the TGI [7] was 77 µM and the GI50 [8] was 7.77 µM. For the same molecule, the TGI [8] was 35.1 µM, the GI50 [9] was 10.5 µM and the TGI [9] was 47.5 µM. For the same molecule, the GI50 [10] was 2.08 µM and the TGI [10] was 20.1 µM.
NNc1c(C(N)=O)c2c(N)ncnc2n1C1OC(CO)C(O)C1O (stereo not drawn) was tested, and the GI50 [1] was 0.0268 µM and 0.0507 µM, the TGI [1] was 0.266 µM and 0.319 µM and the GI50 [2] was 0.0205 µM and 0.0363 µM. For the same molecule, the TGI [2] was 0.084 µM and 0.171 µM, the GI50 [3] was 0.0349 µM and the TGI [3] was 0.13 µM and 1.2 µM. For the same molecule, the GI50 [4] was 0.086 µM, the TGI [4] was 0.491 µM and 2.23 µM and the GI50 [5] was 0.138 µM and 0.0291 µM. For the same molecule, the TGI [5] was 0.759 µM and 0.192 µM, the GI50 [6] was 0.0197 µM and 0.14 µM and the TGI [6] was 0.673 µM and 4.45 µM. The TGI [7] was 0.104 µM and 0.14 µM, the GI50 [8] was 0.124 µM and the GI50 [9] was < 0.0151 µM. For the same molecule, the TGI [9] was 0.183 µM and 0.178 µM, the GI50 [10] was < 0.0143 µM and 0.0246 µM and the TGI [10] was 0.0959 µM and 0.454 µM.
NC(=NCCCCCCN=C(N)/N=C(\N)Nc1ccc(Cl)cc1)/N=C(\N)Nc1ccc(Cl)cc1 showed a GI50 [1] of 1.16 µM, a TGI [1] of 3.59 µM and a GI50 [2] of 1.1 µM. The TGI [2] was 3.28 µM, the GI50 [3] was 0.958 µM and the TGI [3] was 2.19 µM. For the same molecule, the GI50 [4] was 1.42 µM, the TGI [4] was 3.96 µM and the GI50 [5] was 1.7 µM. For the same molecule, the TGI [5] was 6 µM, the GI50 [6] was 0.929 µM and the TGI [6] was 1.92 µM. For the same molecule, the GI50 [7] was 1.71 µM, the TGI [7] was 7.72 µM and the GI50 [8] was 1.33 µM. For the same molecule, the TGI [8] was 4.06 µM, the GI50 [9] was 1.93 µM and the TGI [9] was 6.52 µM. For the same molecule, the GI50 [10] was 2.61 µM and the TGI [10] was 11 µM.
COc1ccc(-c2nsc3c2NC(=O)CC3c2ccsc2)cc1 (stereo not drawn) gave a GI50 [1] of 0.375 µM, a TGI [1] of 73.8 µM and a GI50 [2] of 0.135 µM. The TGI [2] was 72.9 µM, the GI50 [3] was 0.422 µM and the TGI [3] was > 100 µM. For the same molecule, the GI50 [4] was 1.26 µM, the TGI [4] was > 100 µM and the GI50 [5] was 4.26 µM. The TGI [5] was > 100 µM, the GI50 [6] was 0.228 µM and the TGI [6] was 9.49 µM. It also gave a GI50 [7] of 0.454 µM, a TGI [7] of 65.6 µM and a GI50 [8] of 0.371 µM. For the same molecule, the TGI [8] was > 100 µM, the GI50 [9] was 0.422 µM and the TGI [9] was 2.87 µM. The GI50 [10] was 1.84 µM and the TGI [10] was > 100 µM.
CC(C)=C[C@@H]1C[C@H](C)[C@H]2CC[C@H](C)c3c(O)c(OC4OC(C)C(O)C(O)C4O)c(C)c1c32 (stereo partly drawn) was tested, and the GI50 [1] was 2.21 µM, the TGI [1] was 20 µM and the GI50 [2] was 12.9 µM. It also gave a TGI [2] of 29.8 µM, a GI50 [3] of 11.8 µM and a TGI [3] of 24.4 µM. It also gave a GI50 [4] of 13.2 µM, a TGI [4] of 26.6 µM and a GI50 [5] of 18.1 µM. For the same molecule, the TGI [5] was 32.1 µM, the GI50 [6] was 7.83 µM and the TGI [6] was 21.2 µM. For the same molecule, the GI50 [7] was 12.5 µM, the TGI [7] was 26.5 µM and the GI50 [8] was 19.2 µM. It also gave a TGI [8] of 34.7 µM, a GI50 [9] of 10.9 µM and a TGI [9] of 23.3 µM. It also gave a GI50 [10] of 14.6 µM and a TGI [10] of 27.8 µM.
In the case of CCn1c(-c2nonc2N)nc2ccccc21, the GI50 [1] is reported as > 25 µM, the TGI [1] is reported as > 25 µM and the GI50 [2] is reported as > 25 µM. The TGI [2] was > 25 µM, the GI50 [3] was > 25 µM and the TGI [3] was > 25 µM. The GI50 [4] was > 25 µM, the TGI [4] was > 25 µM and the GI50 [5] was > 25 µM. The TGI [5] was > 25 µM, the GI50 [6] was > 25 µM and the TGI [6] was > 25 µM. The GI50 [7] was > 25 µM, the TGI [7] was > 25 µM and the GI50 [8] was > 25 µM. For the same molecule, the TGI [8] was > 25 µM, the GI50 [9] was > 25 µM and the TGI [9] was > 25 µM. For the same molecule, the GI50 [10] was > 25 µM and the TGI [10] was > 25 µM.
